Measured values as given in US20260158028A1, “USE OF QUINOLINONE DERIVATIVE IN TREATMENT OF IMMUNE THROMBOCYTOPENIA” (CHIA TAI TIANQING PHARMACEUTICAL GROUP CO., LTD., priority 2021, published 2026).

System: adult subjects with persistent or chronic immune thrombocytopenia
Test: Clinical trial for immune thrombocytopenia (platelet counts, safety)
Assay type: in vivo, human
Details: for platelet count: 600 mg/d; for clinical efficacy in treating immune thrombocytopenia: adult persistent or chronic immune thrombocytopenia; for overall safety: tablets orally once daily on an empty stomach, 28-day cycles, 6 subjects; for percentage of subjects with at least one platelet count of ≥30×10^9/L and an increase of ≥2 times the baseline in platelet count / percentage of subjects with at least one platelet count of ≥50×10^9/L: within 12 weeks of treatment; for percentage of subjects with at least one platelet count of ≥30×10^9/L and an increase of ≥2 times the baseline in platelet count: in the absence of emergency treatment, evaluated patients
Protocol: Test drug: tablets of the compound of formula I, 50 mg/tablet or 200 mg/tablet; Administration regimen: orally taken once daily on an empty stomach, with 28 consecutive days of administration as one treatment cycle.
Neutrophil count (ANC)>1.5×10^9/L; hemoglobin (Hb)>90 g/L; • b. Total bilirubin (TBIL), alanine aminotransferase (ALT), and aspartate aminotransferase (AST)≤1.5 times the upper limit of normal (ULN); serum creatinine≤1.5×ULN, and creatinine clearance rate≥50 mL/min; • c. […] Prothrombin time (PT) is within the normal range±3 s, and activated partial thromboplastin time (APTT) is within the normal range±10 s; • e. The subject has no history of coagulation disorders other than immune thrombocytopenia. • 8) A female subject of childbearing age should agree to take contraceptive measures (such as intrauterine devices, contraceptives, or condoms) during the study and for 90 days after the study; serum pregnancy test results should be negative within 7 days before enrollment, and the subject must be a non-lactating one; a male subject should agree to take contraceptive measures during the study and for 6 months after the study.
Efficacy was evaluated according to the platelet counts, WHO bleeding scores, and emergency treatment received of the subjects. The effective rate of platelet count increase was used as a main measure of efficacy, and for evaluation criteria, reference was made to American Society of Hematology 2019 Guidelines for Immune Thrombocytopenia and Chinese Guidelines for Diagnosing and Treating Adult Primary Immune Thrombocytopenia (2020 Edition).
A total of 6 subjects were enrolled, with 3 in the 400 mg group (the dose for 2 of them was increased to 600 mg) and 3 in the 600 mg group.

[1] = 400 mg and 600 mg groups, listed as tablets of the compound of formula I
[2] = tablets orally once daily, 400 mg and 600 mg groups

Cn1c(=O)c(Nc2ccc(N3CCN(C4COC4)CC3)cn2)cc2c(F)c(-c3cc[nH]n3)ccc21 [compound of formula I]
platelet count (Subject 1, previous third-line therapy, baseline mean 22, D 3): 5.2e+10 L⁻¹
platelet count (Subject 1, previous third-line therapy, baseline mean 22, D 11): 2.2e+11 L⁻¹
platelet count (Subject 1, previous third-line therapy, baseline mean 22, D 18): 7e+09 L⁻¹
platelet count (Subject 1, previous third-line therapy, baseline mean 22, D 25): 9e+09 L⁻¹
platelet count (Subject 1, previous third-line therapy, baseline mean 22, W 5 D 1): 8.9e+10 L⁻¹
platelet count (Subject 1, previous third-line therapy, baseline mean 22, W 6 D 1): 8.4e+10 L⁻¹
platelet count (Subject 1, previous third-line therapy, baseline mean 22, W 7 D 1): 3.5e+10 L⁻¹
platelet count (Subject 1, previous third-line therapy, baseline mean 22, W 8 D 1): 1.31e+11 L⁻¹
platelet count (Subject 1, previous third-line therapy, baseline mean 22, W 9 D 1): 2.24e+11 L⁻¹
platelet count (Subject 1, previous third-line therapy, baseline mean 22, W 10 D 1): 2.5e+10 L⁻¹
platelet count (Subject 1, previous third-line therapy, baseline mean 22, W 12 D 1): 1e+11 L⁻¹
platelet count (Subject 2, previous second-line therapy, baseline mean 6.5, D 3): 1e+10 L⁻¹
platelet count (Subject 2, previous second-line therapy, baseline mean 6.5, D 11): 3.1e+10 L⁻¹
platelet count (Subject 2, previous second-line therapy, baseline mean 6.5, D 18): 3.5e+10 L⁻¹
platelet count (Subject 2, previous second-line therapy, baseline mean 6.5, D 25): 2.1e+10 L⁻¹
platelet count (Subject 3, previous first-line therapy, baseline mean 33.5, D 3): 5.8e+10 L⁻¹
platelet count (Subject 3, previous first-line therapy, baseline mean 33.5, D 11): 8.3e+10 L⁻¹
platelet count (Subject 3, previous first-line therapy, baseline mean 33.5, D 18): 3.4e+10 L⁻¹
clinical efficacy in treating immune thrombocytopenia: can effectively improve the platelet count
clinical efficacy in treating immune thrombocytopenia (listed as tablets of the compound of formula I): excellent clinical efficacy
overall safety (400 mg and 600 mg groups): good safety
overall safety [1]: controllable
dose-limiting toxicity (DLT) events [2]: no dose-limiting toxicity (DLT) events
treatment-related adverse events of grade 3 or higher [2]: no treatment-related adverse events of grade 3 or higher
percentage of subjects with at least one platelet count of ≥30×10^9/L and an increase of ≥2 times the baseline in platelet count (400 mg and 600 mg groups): relatively high
percentage of subjects with at least one platelet count of ≥30×10^9/L and an increase of ≥2 times the baseline in platelet count [1]: 50%
percentage of subjects with at least one platelet count of ≥50×10^9/L (400 mg and 600 mg groups): relatively high
percentage of subjects with at least one platelet count of ≥50×10^9/L [1]: 33.3%
